These results are taken from US20230096761A1, “NOVEL COMPOSITION BASED ON POLYCAFFEOYLQUINIC ACIDS, COSMETIC USE THEREOF AND COSMETIC COMPOSITIONS COMPRISING SAME” (Societe D'Exploitation De Produits Pour Les Industries …, priority 2018, published 2023).

The experiment deals with normal human keratinocytes. Kind of experiment: Keratinocyte differentiation: filaggrin immunolabeling normalized to nuclei. Type of experiment: cell-based. Conditions: positive reference 1 mMol/L, 72 hours. Here is the method: To do this, normal human keratinocytes were cultured at 37° C. and 5% CO2. After a period of 4 days, they were treated with the products whose action it is desired to evaluate. After culturing for a further 72 hours at 37° C. and 5% CO2 with the test products, the cell lawns were rinsed, dried and then fixed with glacial methanol. Filaggrin, a keratinocyte differentiation marker, was detected and quantified by fluorescent immunolabeling with an anti-filaggrin primary antibody and a fluorescent secondary antibody to reveal the former. The nuclei were detected and quantified by marking with Hoechst, a fluorescent stain which binds to DNA and thus labels the nuclei. This last labeling was performed to normalize the results obtained previously on filaggrin. An increase in the filaggrin (area of labeling)/nuclei (area of labeling) ratio is evidence of an increase in the differentiation of the epidermal keratinocytes, and consequently of reinforcement of the barrier effect of the epidermis, which constitutes one of the factors of the reinforcement of the state of moisturization of the skin. An increase in keratinocyte differentiation makes it possible to reinforce the barrier effect of the human epidermis, and consequently to decrease the unesthetic effects that may be caused by the dehydration of human skin.

Marks after values point to notes of the source that are not given here.

As to `[Ca+2].[Cl-].[Cl-]` [CaCl2], the “Filaggrin (area of labeling)/nuclei (area of labeling)” value is on record as 0.0245 ± 0.0045. Moreover, the “% stimulation vs control” value (filaggrin/nuclei) is 621* %.
